Earlier results in US20110251239A1, “COMBINATION THERAPY FOR THE TREATMENT OF DEMENTIA” (EISAI INC., priority 2010, published 2011).

Legend:
[1] = tested on: CYP450 enzymes (CYP1A2, -2A6, -2C9, -2D6, -2E1, -3A4)
[2] = tested on: cytochrome P450 isozymes CYP1A2, CYP2C9, CYP2E1 and CYP3A4/5

For `CC12CC3CC(C)(C1)CC(N)(C3)C2` [memantine, 1-amino-3,5-dimethyl adamantane], the “inhibition of CYP450 enzymes” value [1] is given as “minimal inhibition” and the “induction of cytochrome P450 isozymes” value [2] is given as “does not induce”.
